Laboratory results from US20240139188A1, “Arylamide Compounds For Treatment And Prevention Of Fungal Infections” (priority 2022, published 2024).
Values after ≈ are worked out from the molar mass of the structure shown. Read-outs that look alike come from different tables or passages of the source.

What was measured:
[1] = test system: Mucorales Unspeciated zygomycete; test: In vitro susceptibility (MIC), macrobroth dilution; assay type: cell-based; conditions: Mucorales Unspeciated zygomycete 07-140
A. fumigatus = test: Alamar blue metabolic activity assay; assay type: cell-based, Aspergillus fumigatus; conditions: ΔmpkA mutant, BRI 20 μM, 48 hours
C. neoformans [2] = test: MIC for yeasts, CLSI M27-A3; assay type: cell-based, Cryptococcus neoformans
Aspergillus niger = test: In vitro susceptibility (MIC), macrobroth dilution; assay type: cell-based; conditions: Aspergillus niger 22-4
C. auris = test: BRI+CAS against yeasts, colony forming units; conditions: plating after 48 hours
Description: (§1) Combination of Brilacidin and caspofungin against yeasts: For measuring the effect of the combination BRI+CAS against yeast fungal pathogens, two methods were used: (i) metabolic activity by XTT-assay and (ii) colony forming units (CFUs). For the first method, C. neoformans, C. albicans, and C. auris 10^4 cells were inoculated in RPMI-1640 supplemented with CAS 0 to 32 μg/ml (for C. neoformans) and 0 to 1 μg/ml (for Candida spp.) or the same concentrations of CAS combined with BRI 0.625 μM (for C. neoformans), BRI 20 μM (for C. albicans), and BRI 10 μM (for C. auris). […] XTT-assays were also used for C. albicans caspofungin resistant strains but with CAS 0.5 μg/ml combined with BRI 5, 10 or 20 μM. The same experimental design was used for the CFUs determination, except that after 48 hours the cells present in the wells were plated on YPD (yeast extract 10g, peptone 20g, dextrose 20g, agar 20 g, water 1000 mL) and the plates were incubated at 30° C. for 24-48 hours for determining the survival percentage.

Cryptococcus neoformans = test: In vitro susceptibility (MIC), macrobroth dilution; assay type: cell-based; conditions: Cryptococcus neoformans, C. neoformans CN9759, drug alone
Exserohilum species = test: In vitro susceptibility (MIC), macrobroth dilution; assay type: cell-based; conditions: Exserohilum species 19-48
Mucorales Mucor species = test: In vitro susceptibility (MIC), macrobroth dilution; assay type: cell-based; conditions: Mucor
C. albicans [3] = test: BRI+CAS against yeasts, colony forming units; conditions: plating after 48 hours
Description: as §1

Aspergillus terreus = test: In vitro susceptibility (MIC), macrobroth dilution; assay type: cell-based; conditions: Aspergillus terreus 12-70
Candida auris = test: In vitro susceptibility (MIC), macrobroth dilution; assay type: cell-based; conditions: Candidozyma auris, Candida auris 20-253
Candida albicans = test: In vitro susceptibility (MIC), macrobroth dilution; assay type: cell-based; conditions: Candida albicans, C. albicans 5, drug alone
Candida lusitaniae = test: In vitro susceptibility (MIC), macrobroth dilution; assay type: cell-based; conditions: Clavispora lusitaniae, Candida lusitaniae 22-16
Aspergillus fumigatus = test: In vitro susceptibility (MIC), macrobroth dilution; assay type: cell-based; conditions: for MIC50 / MIC: Aspergillus fumigatus
Lomentospora prolificans = test: In vitro susceptibility (MIC), macrobroth dilution; assay type: cell-based
Candida krusei = test: In vitro susceptibility (MIC), macrobroth dilution; assay type: cell-based; conditions: Pichia kudriavzevii, Candida krusei 03-287 (fluconazole-resistant)
Torulopsis glabrata = test: In vitro susceptibility (MIC), macrobroth dilution; assay type: cell-based; conditions: Nakaseomyces glabratus, Torulopsis glabrata 22-21
[4] = test system: critical fungal pathogens; test: Checkerboard drug interaction testing (FICi), BRI with conventional antifungals; assay type: cell-based; conditions: organisms tested, with the exception of Aspergillus
Acremonium species = test: In vitro susceptibility (MIC), macrobroth dilution; assay type: cell-based; conditions: Acremonium species 18-51
Aspergillus lentulus = test: In vitro susceptibility (MIC), macrobroth dilution; assay type: cell-based; conditions: Aspergillus lentulus 14-39
C. neoformans [5] = test: BRI+CAS against yeasts, XTT metabolic activity; conditions: CAS alone, 48 hours
[6] = test system: A. fumigatus conidia infecting A549 pulmonary cells; test: Killing assay in infected A549 cells; assay type: cell-based, Aspergillus fumigatus; conditions: monotherapy
Description: Killing assay: The type II pneumocyte cell line A549 was cultured using DMEM (ThermoFischer Scientific, Paisley. […] After 24 hours of incubation in 5% CO2 the culture media was removed, and 2 ml of sterile water was added to the wells. A P1000 tip was then used to scrape away the cell monolayer and the cell suspension was collected. This suspension was then diluted 1:1000 and 100 μl was plated on Sabouraud Dextrose Agar Media before the plates were incubated a 37° C. overnight. The numbers of CFUs were determined after 24 hours of growth. A volume of 50 μl of the inoculum adjusted to 103/ml was also plated on SAB agar to correct CFU counts. The CFU percentage for each sample was calculated and the results were plotted using Graphpad Prism (GraphPad Software, Inc., La Jolla, CA, USA).

C. albicans [7] = test: BRI+CAS against yeasts, XTT metabolic activity; conditions: absence of BRI
[8] = read-out: 50% Inhibition BRI (MIC50)
[9] = read-out: 100% Inhibition BRI (MIC100)
[10] = lowest concentration causing 50% decrease in growth vs untreated control, read-out: MIC50
[11] = lowest concentration without growth, read-out: MIC100

N=C(N)NCCCCC(=O)Nc1cc(C(F)(F)F)cc(NC(=O)c2cc(C(=O)Nc3cc(C(F)(F)F)cc(NC(=O)CCCCNC(=N)N)c3OC3CCNC3)ncn2)c1OC1CCNC1 (stereo not drawn) [BRI, brilacidin]
MIC50 [1, 8]: 2 µg/mL (≈ 2.13 µM)
MIC [1, 9]: 16 µg/mL (≈ 17.1 µM)
metabolic activity (Alamar blue) in presence vs absence of BRI (A. fumigatus): significantly decreased metabolic activity
MIC (C. neoformans [2]; Cryptococcus neoformans H99, read-out: MIC BRI): 2.5 µM
MIC (C. neoformans [2]; Cryptococcus neoformans, C. neoformans, read-out: MIC BRI): 2.5 µM
MIC50 (Aspergillus niger; [8]): 8 µg/mL (≈ 8.54 µM)
MIC (Aspergillus niger; [9]): 16 µg/mL (≈ 17.1 µM)
Mechanism (C. auris; Candida auris 467/2015): Fungicidal
Mechanism (C. auris; Candida auris 468/2015): Fungicidal
Mechanism (C. auris; Candida auris 469/2015): Fungicidal
Mechanism (C. auris; Candida auris 470/2015): Fungicidal
Mechanism (C. auris; Candida auris 471/2015): Fungicidal
MIC50 (Cryptococcus neoformans; [10]): 1 µg/mL (≈ 1.07 µM)
MIC (Cryptococcus neoformans; [11]): 8 µg/mL (≈ 8.54 µM)
MIC50 (Exserohilum species; [8]): 1 µg/mL (≈ 1.07 µM)
MIC (Exserohilum species; [9]): 16 µg/mL (≈ 17.1 µM)
MIC50 (Mucorales Mucor species; Mucor sp. 13-127, drug alone, lowest concentration causing 50% decrease in growth vs untreated control, read-out: MIC50): 4 µg/mL (≈ 4.27 µM)
MIC (Mucorales Mucor species; Mucor sp. 13-127, drug alone, lowest concentration without growth, read-out: MIC100): 64 µg/mL (≈ 68.3 µM)
MIC (Mucorales Mucor species; Mucorales Mucor species, read-out: 100% Inhibition BRI (MIC100)): 32 µg/mL (≈ 34.2 µM)
Mechanism (C. albicans [3]; Candida albicans DPL1006 CAS^R): Fungicidal
Mechanism (C. albicans [3]; Candida albicans DPL1007 CAS^R): Fungicidal
Mechanism (C. albicans [3]; Candida albicans DPL1009 CAS^R): Fungicidal
Mechanism (C. albicans [3]; Candida albicans DPL1010 CAS^R): Fungicidal
Mechanism (C. albicans [3]; Candida albicans DPL1011 CAS^R): Fungicidal
Mechanism (C. albicans [3]; Candida albicans SC5314): Fungicidal
MIC50 (Aspergillus terreus; [8]): > 64 µg/mL
MIC (Aspergillus terreus; [9]): > 64 µg/mL
MIC50 (Candida auris; [8]): > 64 µg/mL
MIC (Candida auris; [9]): > 64 µg/mL
MIC50 (Candida albicans; [10]): 4 µg/mL (≈ 4.27 µM)
MIC (Candida albicans; [11]): > 64 µg/mL
MIC50 (Candida lusitaniae; [8]): 8 µg/mL (≈ 8.54 µM)
MIC (Candida lusitaniae; [9]): 8 µg/mL (≈ 8.54 µM)
MIC100 (Aspergillus fumigatus; A. fumigatus 21-23, drug alone, lowest concentration without growth): >64 µg/mL
MIC50 (Aspergillus fumigatus; A. fumigatus 10AF, drug alone, lowest concentration causing 50% decrease in growth vs untreated control, read-out: MIC50): 64 µg/mL (≈ 68.3 µM)
MIC50 (Aspergillus fumigatus; A. fumigatus 21-23, drug alone, lowest concentration causing 50% decrease in growth vs untreated control, read-out: MIC50): 64 µg/mL (≈ 68.3 µM)
MIC (Aspergillus fumigatus; A. fumigatus 10AF, drug alone, lowest concentration without growth, read-out: MIC100): > 64 µg/mL
MIC50 (Aspergillus fumigatus; [8]): > 64 µg/mL
MIC (Aspergillus fumigatus; [9]): > 64 µg/mL
MIC50 (Lomentospora prolificans; [8]): 4 µg/mL (≈ 4.27 µM)
MIC (Lomentospora prolificans; [9]): 8 µg/mL (≈ 8.54 µM)
MIC50 (Candida krusei; [8]): 8 µg/mL (≈ 8.54 µM)
MIC (Candida krusei; [9]): 16 µg/mL (≈ 17.1 µM)
MIC50 (Torulopsis glabrata; [8]): 64 µg/mL (≈ 68.3 µM)
MIC (Torulopsis glabrata; [9]): > 64 µg/mL
in vitro activity of BRI alone [4]: favorable in vitro activity
MIC50 (Acremonium species; [8]): 4 µg/mL (≈ 4.27 µM)
MIC (Acremonium species; [9]): > 64 µg/mL
MIC50 (Aspergillus lentulus; [8]): 32 µg/mL (≈ 34.2 µM)
MIC (Aspergillus lentulus; [9]): > 64 µg/mL

CC[C@H](C)C[C@H](C)CCCCCCCCC(=O)N[C@H]1C[C@@H](O)[C@@H](NCCN)NC(=O)[C@@H]2[C@@H](O)CCN2C(=O)[C@H]([C@H](O)CCN)NC(=O)[C@H]([C@H](O)[C@@H](O)c2ccc(O)cc2)NC(=O)[C@@H]2C[C@@H](O)CN2C(=O)[C@H]([C@@H](C)O)NC1=O [CAS, caspofungin]
MIC (C. neoformans [2]; Cryptococcus neoformans H99, read-out: MIC CAS): 32 µg/mL
CAS concentration that completely inhibits metabolic activity (XTT) (C. neoformans [5]): 32 µg/mL
A. fumigatus killing [6]: 25%
CAS concentration for complete inhibition of metabolic activity (XTT) and survival (CFUs) (C. albicans [7]): ~0.125 µg/mL
